Test results reported in US20260297060A1, “COMPOUNDS FOR THE DEGRADATION OF MUTANT BRAF” (C4 THERAPEUTICS, INC., priority 2023, published 2026).
Where two headings read alike, the source gives them in different places.

Experiments:
BRAF V600E = molecular target: T1, BRAF V600E (Homo sapiens, UniProt P15056+Q96SW2, V600E); assay: BRAF V600E HiBiT Degradation Assay; type: cell-based; settings: for DC50: A375.10 cells, BRAF V600E, 2 hours; for Emax: read-out: HiBiT-Degradation A375.10 BRAF 2 hours Emax, A375.10 cells, BRAF V600E, 2 hours, residual protein remaining
T1 construct: knock-in of the HiBiT tag to the endogenous BRAF V600E locus; host or cells: A375.10 (A375 clonal line, CRISPR HiBiT knock-in at the endogenous BRAF V600E locus)
How it was run: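 Endogenous HiBiT knock-in on BRAF V600E in A375 cells (clone A375.10); 11-point half-log series, top 10 μM, 2, 6 or 24 h at 37° C. Lytic HiBiT luminescence, background-subtracted, normalized to DMSO; 4-parameter fit gives DC50, Emax (residual protein) and IP (inflection point).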

[1] = tested on: A375 human melanoma xenografts; assay: Example 6 efficacy study in A375 human melanoma xenografts (tumor volume, T/C, TGI); type: in vivo, BALB/c nude mice; settings: p.o., QD × 21 days; for T/C / TGI / Tumor Size on PG-D21: PG-D21; for Tumor Size on PG-D21 / Tumor volume: Mean ± SEM
Method: For efficacy study, compounds were tested in the A375 human melanoma xenografts. Known BRAF inhibitors encorafenib, and dabrafenib were used as positive controls. Encorafenib and dabrafenib were administered to BALB/c nude mice bearing A375 tumors on PG-D1 and dosed PO daily (QD) for 3 weeks. Encorafenib was dosed at 35 mg/kg. Dabrafenib was dosed at 100 mg/kg. Compound 83, Compound 93, Compound 70, and Compound 54 were administered to BALB/c nude mice bearing A375 tumors on PG-DO and dosed PO twice per day (BID) for 3 weeks. Compound 83, Compound 93, Compound 70, and Compound 54 were dosed at 10 mg/kg.
The A375 tumor cells were maintained in vitro in DMEM medium supplemented with […] and 1% Penicillin-Streptomycin at 37° C. in an atmosphere of 5% CO2 in air. The tumor cells were routinely subcultured twice weekly. The cells growing in an exponential growth phase were harvested and counted for tumor inoculation.
Each mouse was inoculated subcutaneously at the right flank with A375 tumor cells (5×10^6) in 0.2 mL of PBS with Matrigel (PBS: Matrigel=1:1) supplemented for tumor development. Animals were grouped for the treatment on day 16 after tumor inoculation when the average tumor volume reached 221 mm^3 for efficacy study and 386 mm^3 for PKPD study. The test articles administration and the animal numbers in each group are shown in the above experimental Tables.
Prior to the onset of drug treatment, mice were measured for tumor size in two dimensions using a caliper, and the tumor volume (mm^3) was calculated using formula V=0.5 a×b^2 where a and b are the long and short diameters of the tumor in mm, respectively. Mice were randomized into different treatment groups based on the tumor volume.
The major endpoint was to see if the tumor growth could be delayed or mice could be cured. The tumor size was then used for calculations of T/C value. The T/C value (in percent) is an indication of antitumor effectiveness; T and C are the mean volumes of the treated and control groups, respectively on specified day.
TGI was calculated for each group using the formula: TGI (%)=[1−(Ti−T0)/(Ci−C0)]×100; Ti is the average tumor volume of a treatment group on a given day, T0 is the average tumor volume of the treatment group on the day of treatment start, Ci is the average tumor volume of the vehicle control group on the same day with Ti, and C0 is the average tumor volume of the vehicle group on the day of treatment start.

[2] = read-out: HiBiT-Degradation A375.10 BRAF 2 hours DC50
[3] = read-out: HiBiT-Degradation A375.10 BRAF 2 hours IP, inflection point

T1 sequence (P15056 whole entry V600E): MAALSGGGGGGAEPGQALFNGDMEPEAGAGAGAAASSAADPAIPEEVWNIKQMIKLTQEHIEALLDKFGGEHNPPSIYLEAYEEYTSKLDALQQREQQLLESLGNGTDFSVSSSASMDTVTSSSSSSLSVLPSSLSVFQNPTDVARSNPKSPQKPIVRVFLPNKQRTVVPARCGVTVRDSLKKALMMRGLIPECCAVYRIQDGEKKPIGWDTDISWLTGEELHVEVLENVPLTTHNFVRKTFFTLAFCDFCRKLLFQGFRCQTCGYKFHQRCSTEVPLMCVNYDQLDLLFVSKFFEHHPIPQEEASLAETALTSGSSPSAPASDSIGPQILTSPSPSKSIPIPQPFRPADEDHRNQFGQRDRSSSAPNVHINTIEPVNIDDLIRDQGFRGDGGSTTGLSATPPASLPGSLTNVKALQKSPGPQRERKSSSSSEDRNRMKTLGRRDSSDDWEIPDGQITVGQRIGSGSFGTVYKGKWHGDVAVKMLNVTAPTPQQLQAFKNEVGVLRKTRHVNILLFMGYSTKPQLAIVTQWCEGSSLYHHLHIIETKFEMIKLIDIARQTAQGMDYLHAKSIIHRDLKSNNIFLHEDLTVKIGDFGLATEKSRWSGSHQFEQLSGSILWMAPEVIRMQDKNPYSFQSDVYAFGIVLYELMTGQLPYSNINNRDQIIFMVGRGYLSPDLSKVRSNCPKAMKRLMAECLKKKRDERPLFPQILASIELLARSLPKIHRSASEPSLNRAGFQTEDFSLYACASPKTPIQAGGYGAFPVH
T1 sequence (Q96SW2 whole entry): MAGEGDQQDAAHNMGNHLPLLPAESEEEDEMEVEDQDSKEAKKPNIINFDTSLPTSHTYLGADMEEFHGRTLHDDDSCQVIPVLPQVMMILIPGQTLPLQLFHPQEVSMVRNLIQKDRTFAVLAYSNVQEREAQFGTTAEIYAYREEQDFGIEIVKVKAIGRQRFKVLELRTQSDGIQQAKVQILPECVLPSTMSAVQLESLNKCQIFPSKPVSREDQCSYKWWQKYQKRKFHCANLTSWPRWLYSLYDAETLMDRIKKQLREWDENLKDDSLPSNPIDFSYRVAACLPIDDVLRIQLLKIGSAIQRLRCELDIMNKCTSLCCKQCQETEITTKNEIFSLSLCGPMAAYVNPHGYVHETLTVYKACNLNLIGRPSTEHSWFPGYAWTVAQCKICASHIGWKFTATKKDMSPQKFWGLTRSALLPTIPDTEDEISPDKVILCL
T1 sequence (Q16531 whole entry partner): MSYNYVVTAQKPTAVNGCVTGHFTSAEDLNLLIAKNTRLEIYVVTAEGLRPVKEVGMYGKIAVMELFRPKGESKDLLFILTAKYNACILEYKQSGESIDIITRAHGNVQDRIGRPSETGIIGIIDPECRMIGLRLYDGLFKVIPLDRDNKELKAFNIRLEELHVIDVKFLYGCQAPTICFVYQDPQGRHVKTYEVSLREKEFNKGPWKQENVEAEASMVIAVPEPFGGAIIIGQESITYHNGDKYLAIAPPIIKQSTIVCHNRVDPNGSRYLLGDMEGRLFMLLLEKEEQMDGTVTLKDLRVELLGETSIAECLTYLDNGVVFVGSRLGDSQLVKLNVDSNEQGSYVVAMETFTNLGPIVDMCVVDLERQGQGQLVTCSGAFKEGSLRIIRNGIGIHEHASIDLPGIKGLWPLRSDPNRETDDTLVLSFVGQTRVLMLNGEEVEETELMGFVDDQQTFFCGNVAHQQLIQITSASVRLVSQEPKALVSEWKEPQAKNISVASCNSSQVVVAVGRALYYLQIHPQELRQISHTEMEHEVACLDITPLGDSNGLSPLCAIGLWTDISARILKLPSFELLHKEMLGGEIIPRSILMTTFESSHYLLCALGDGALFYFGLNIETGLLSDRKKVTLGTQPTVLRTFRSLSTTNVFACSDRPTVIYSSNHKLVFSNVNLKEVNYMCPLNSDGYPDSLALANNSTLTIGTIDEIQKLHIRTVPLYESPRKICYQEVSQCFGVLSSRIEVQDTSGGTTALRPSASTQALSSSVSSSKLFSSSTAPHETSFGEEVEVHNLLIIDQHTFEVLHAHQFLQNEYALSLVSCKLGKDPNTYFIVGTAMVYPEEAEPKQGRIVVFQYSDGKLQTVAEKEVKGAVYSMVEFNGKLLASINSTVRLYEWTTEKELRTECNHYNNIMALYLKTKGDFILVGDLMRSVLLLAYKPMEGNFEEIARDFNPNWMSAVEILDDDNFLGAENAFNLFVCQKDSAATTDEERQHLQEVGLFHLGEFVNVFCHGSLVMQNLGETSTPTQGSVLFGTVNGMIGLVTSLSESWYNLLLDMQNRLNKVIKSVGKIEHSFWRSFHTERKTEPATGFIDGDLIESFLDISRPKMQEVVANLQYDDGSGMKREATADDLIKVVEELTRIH

CO[C@@H]1CCN(S(=O)(=O)Nc2ccc(F)c(Oc3ccc4ncn(C5CC6(CCN(C7CC8(C7)CN(c7cc9c(cc7F)c(N7CCC(=O)NC7=O)nn9C)C8)CC6)C5)c(=O)c4c3)c2C#N)C1 (stereo partly drawn) [Compound 269, (3R)-N-[2-cyano-3-[3-[7-[2-[3-(2,4-dioxohexahydropyrimidin-1-yl)-5-fluoro-1-methyl-indazol-6-yl]-2-azaspiro[3.3]heptan-6-yl]-7-azaspiro[3.5]nonan-2-yl]-4-oxo-quinazolin-6-yl]oxy-4-fluoro-phenyl]-3-methoxy-pyrrolidine-1-sulfonamide]
DC50 (BRAF V600E; [2]): < 1000 nM | Emax (BRAF V600E): < 50% | DC50 (BRAF V600E; [3]): < 1000 nM

COC1CN(S(=O)(=O)Nc2ccc(F)c(Oc3ccc4ncn(C5CC6(CCN(C7CC8(C7)CN(c7cc9c(cc7F)c(N7CCC(=O)NC7=O)nn9C)C8)CC6)C5)c(=O)c4c3)c2C#N)C1 (centres unmarked) [Compound 280, N-[2-cyano-3-[3-[7-[2-[3-(2,4-dioxohexahydropyrimidin-1-yl)-5-fluoro-1-methyl-indazol-6-yl]-2-azaspiro[3.3]heptan-6-yl]-7-azaspiro[3.5]nonan-2-yl]-4-oxo-quinazolin-6-yl]oxy-4-fluoro-phenyl]-3-methoxy-azetidine-1-sulfonamide]
DC50 (BRAF V600E; [2]): < 1000 nM | Emax (BRAF V600E): < 50% | DC50 (BRAF V600E; [3]): < 1000 nM

CC(C)(C)c1nc(-c2cccc(NS(=O)(=O)c3c(F)cccc3F)c2F)c(-c2ccnc(N)n2)s1 [Dabrafenib, dabrafenib, reference compound]
T/C ([1]; 100 mg/kg): 26.6% | TGI ([1]; 100 mg/kg): 81.5% | Tumor Size on PG-D21 ([1]; 100 mg/kg): 588 ± 244 mm^3 | Tumor volume ([1]; 100 mg/kg, day 0): 221 ± 10 mm^3 | Tumor volume ([1]; 100 mg/kg, day 4): 288 ± 19 mm^3 | Tumor volume ([1]; 100 mg/kg, day 7): 348 ± 33 mm^3 | Tumor volume ([1]; 100 mg/kg, day 11): 383 ± 64 mm^3 | Tumor volume ([1]; 100 mg/kg, day 14): 407 ± 122 mm^3 | Tumor volume ([1]; 100 mg/kg, day 18): 454 ± 159 mm^3 | Tumor volume ([1]; 100 mg/kg, day 21): 588 ± 244 mm^3

COC(=O)N[C@@H](C)CNc1nccc(-c2cn(C(C)C)nc2-c2cc(Cl)cc(NS(C)(=O)=O)c2F)n1 [Encorafenib, encorafenib, reference compound]
T/C ([1]; 35 mg/kg): 10.6% | TGI ([1]; 35 mg/kg): 99.3% | Tumor Size on PG-D21 ([1]; 35 mg/kg): 235 ± 68 mm^3 | Tumor volume ([1]; 35 mg/kg, day 0): 221 ± 10 mm^3 | Tumor volume ([1]; 35 mg/kg, day 4): 260 ± 22 mm^3 | Tumor volume ([1]; 35 mg/kg, day 7): 278 ± 17 mm^3 | Tumor volume ([1]; 35 mg/kg, day 11): 238 ± 18 mm^3 | Tumor volume ([1]; 35 mg/kg, day 14): 209 ± 31 mm^3 | Tumor volume ([1]; 35 mg/kg, day 18): 196 ± 47 mm^3 | Tumor volume ([1]; 35 mg/kg, day 21): 235 ± 68 mm^3
